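48-hour exposure; five concentrations; linearly interpolated endpoints. The concentration for 50% growth inhibition is given as GI50. TGI marks complete inhibition of growth.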
How the values were obtained:
Experiment in all cases: DTP human tumour cell line panel, 48 h
HCC-2998 colon = test system: HCC-2998 colon
K-562 leukemia = test system: K-562 leukemia
SNB-75 CNS = test system: SNB-75 CNS
HOP-92 NSCLC = test system: HOP-92 NSCLC
HCT-15 colon = test system: HCT-15 colon
HOP-62 NSCLC = test system: HOP-62 NSCLC
HT29 colon = test system: HT29 colon
COLO 205 colon = test system: COLO 205 colon
OVCAR-4 ovarian = test system: OVCAR-4 ovarian
NCI/ADR-RES ovarian = test system: NCI/ADR-RES ovarian

SMILES | TGI (HCC-2998 colon) [µM] | TGI (K-562 leukemia) [µM] | TGI (SNB-75 CNS) [µM] | TGI (HOP-92 NSCLC) [µM] | TGI (HCT-15 colon) [µM] | TGI (HOP-62 NSCLC) [µM] | TGI (HT29 colon) [µM] | TGI (COLO 205 colon) [µM] | TGI (OVCAR-4 ovarian) [µM] | TGI (NCI/ADR-RES ovarian) [µM] | GI50 (HCC-2998 colon) [µM] | GI50 (K-562 leukemia) [µM] | GI50 (SNB-75 CNS) [µM] | GI50 (HOP-92 NSCLC) [µM] | GI50 (HCT-15 colon) [µM] | GI50 (NCI/ADR-RES ovarian) [µM] | GI50 (HT29 colon) [µM] | GI50 (COLO 205 colon) [µM] | GI50 (OVCAR-4 ovarian) [µM]
COc1ccc(-c2nnc3c4ccccc4sn23)cc1 | > 100 | > 100 | 87.3 | > 100 | > 100 | > 100 | > 100 | > 100 | > 100 | – | – | – | – | – | – | – | – | – | –
O=C1CNC(=O)N1 | > 1120 | > 630 | > 1120 | > 11.2 | > 1120 | > 1120 | > 1120 | > 1120 | > 1120 | > 1120 | – | – | – | – | – | – | – | – | –
COc1ccc2c(c1)C(=O)/C(=C/c1ccccc1)C2 | – | > 100 | > 100 | > 100 | > 100 | > 100 | > 100 | – | > 100 | 88.2 | – | – | – | – | – | – | – | – | –
Cc1cc(C)c(S(=O)(=O)N(CCCCCCN)OCCCON(CCCCCCN)S(=O)(=O)c2c(C)cc(C)cc2C)c(C)c1 | – | > 100 | 3.17 | 2.96 | 3.6 | 3.6 | 3.05 | 3.76 | 3.38 | 34.6 | – | – | – | – | – | – | – | – | –
Fc1cc(C2=Nn3c(nnc3-c3cc(F)c(Cl)cc3Cl)SC2)c(Cl)cc1Cl | > 100 | > 100 | > 100 | > 100 | 70.2 | – | 56.3 | 43.1 | > 100 | > 100 | 31.6 | 17.8 | 26.2 | 11.3 | 20.2 | 27.4 | 20.1 | 19 | 34.5
CC1(C)CCCC2(C)[C@@H]1CC[C@]13C[C@](C)(CC[C@@H]21)[C@@H]3CO (some centres undefined) | > 100 | > 100 | > 100 | > 100 | > 100 | > 100 | > 100 | > 100 | > 100 | – | – | – | – | – | – | – | – | – | –
O=c1n(Cc2ccccc2)c2ccccc2n1CC1CS1 (centres undefined) | > 100 | > 100 | > 100 | > 100 | > 100 | > 100 | – | > 100 | > 100 | – | – | – | – | – | – | – | – | – | –
COc1cc(CN(C)N2C(=O)c3cccc4cc([N+](=O)[O-])cc(c34)C2=O)cc(OC)c1OC | – | > 100 | 60.1 | > 100 | > 100 | 51.9 | > 100 | > 100 | > 100 | > 100 | – | – | – | – | – | – | – | – | –
CCOC(=O)c1csc(NC(=O)CCN2CCOCC2)n1 | > 100 | > 100 | – | > 100 | > 100 | > 100 | > 100 | > 100 | > 100 | > 100 | – | – | – | – | – | – | – | – | –

From PubChem BioAssay (NCI)
